Experimental data as given in patent US20200179479A1, “INHIBITION OF ALPHA5BETA1 INTEGRIN WITH ATN-161 AS A NOVEL THERAPY FOR VASCULAR DEMENTIA” (University of Kentucky Research Foundation, priority 2018, published 2020).
Entries after “also recorded” stand apart in the source; their conditions may differ.

Experiments:
α5β1 integrin [1] = settings: single IP dose 24 hours after MCAO; Wu et al.; cited from earlier work
Claudin-5 = assay: Immunofluorescence of Claudin-5 in stroked brain; type: in vivo, mouse; settings: mean±SD, n=6; Vehicle 19830±5538
Description: (§1) On PSD3, animals were systemically perfused with PBS (Phosphate Buffered Solution, 1×) for 5 minutes. Brains were removed, flash frozen in liquid nitrogen, and stored at −20 C until use. The brains were coronally sectioned by cryostat at 20 μm and mounted (four per slide, 2 mm separating each section) for staining. Negative controls (no primary antibody) were run in tandem with each target to determine thresholding values.
(§2) Sections were fixed in methanol:acetone (1:1), followed by blocking buffer (5% bovine serum albumin (Fisher Scientific) in PBS with 0.1% Triton-X). Sections were incubated in primary antibody overnight at 4 C (anti-rabbit PECAM at 1:100, Fisher Scientific; anti-rat CD49e at 1:250, BD Pharminagen; anti-rat CD45 at 1:200, ThermoFisher Scientific, anti-rabbit Claudin-5 at 1:200, Abcam, anti-rabbit MMP-9 at 1:100, Abcam, and anti-rabbit fibronectin at 1:100, Abcam). Sections were washed and placed in fluorophore-conjugated secondary antibody, followed by NucBlue cell nucleus counterstain (Fisher Scientific) at room temperature (Vector Labs, 1:250), then cover slipped (Vector Labs) and imaged on a Nikon Eclipse Ti and software (Nikon, Melville, N.Y., USA). Image J was used to quantify all Immunofluorescence positive pixels. CD45: One 4× image per all four sections were taken and averaged. […]

α5β1 integrin [2] = biological target: T1, α5β1 integrin (Mus musculus, UniProt P09055+P11688); assay: BCAS mouse model, α5 staining in cortex; type: in vivo; settings: 14 days, 1 mg/kg i.p. after surgery and every other day to day 12, n=4, preliminary data
T1 construct: Mice (WT, α5KO, DB) are subjected to either sham or BCAS (0.18 mm ID coils) surgery; from tissue; host or cells: living mouse; brain (cortex)
Description: Representative images within the cortex of α5 staining in BCAS animals treated with ATN-161 (1 mg/kg; i.p.). ATN-161 n=4
Quantification of α5-positive pixel density. ***p≤0.001 compared to sham group.
(§3) Mice (WT, α5KO, DB) are subjected to either sham or BCAS (0.18 mm ID coils) surgery. Euthanasia and brain tissue extraction, and processing for immunohistochemistry or western blot analysis (see below) will occur at early (14 days) or late (30 and 60 days) time points following BCAS. This will allow correlation of α5β1 integrin expression levels with the progression of brain injury over time, whether it could potentially contribute to this pathology early and/or late, and determine whether this is influenced by the diabetic phenotype prior to overt cerebrovascular pathology.

[3] = test system: angiogenesis and tumor growth; settings: Donate et al.; cited from earlier work
IL-1β = assay: qPCR of ipsilateral cortex at PSD3, IL-1β; type: in vivo, mouse; settings: relative to sham; mean±SD, n=7; Sham 1.023±0.1666, Vehicle 27.04±19.96
Description: (§4) On PSD3, brains were removed and sectioned at 2 mm where the ipsilateral cortical tissue and corresponding contralateral cortical tissue were isolated. All sections per animal were combined and homogenized in Trizol (Life Technologies). RNA extraction was performed according to the RNA extraction kit provided by the manufacturer (Life Technologies). RNA was converted to cDNA using a high capacity cDNA reverse transcriptase kit (Applied Bioscience, Grand Island, N.Y., USA). 18S (control; Mm03928990_g1), collagen IV (Mm00483669_m1), IL-1β (Mm00434228_m1), CXCL12 (Mm00445553_m1), and MMP9 (Mm00442991_m1) Taqman genes were analyzed using Real-time PCR (ViiA7, Life Technologies). Data was analyzed as fold change comparing vehicle and ATN-161 treated mice as a % control (sham).

MMP-9 [4] = assay: qPCR of ipsilateral cortex at PSD3, MMP-9; type: in vivo, mouse; settings: relative to sham; mean±SD, n=7; Sham 1.018±0.1759, Vehicle 6.761±5.321
Description: as §4

[5] = Physiological measurements (MouseOx) and body weight after reperfusion in stroked mice; type: in vivo, mouse
Description: (§5) Mice underwent transient tandem ipsilateral common carotid artery/middle cerebral artery (CCA/MCA) occlusion for 60 minutes as previously published, followed by reperfusion for 1-3 days. Briefly, a small burr hole is created directly over the M2 branch of the MCA, and a 0.0005 inch metal filament is placed under the artery on both sides of the burr hole. The CCA was then isolated and occluded using an aneurysm clip. Blood flow was determined with the Laser Doppler Perfusion Monitor (Perimed, Ardmore, Pa., USA). Animals that received less than 80% occlusion rate from baseline (i.e. pre-occlusion) were excluded from analysis. Sham animals underwent the listed procedure without vascular occlusion. All mice were allowed to recover to post-stroke day (PSD)3, during which daily body weights were measured.
Immediately following reperfusion, heart, rate, pulse distension, and body temperature were recorded using MouseOx (Starr Life Science, Holliston, Mass., USA). After 5 minutes, sterile PBS (Vehicle) or ATN-161 was injected via IP (as described below); mice were continually observed for 15 minutes post reperfusion.

IgG = IgG immunohistochemistry (BBB permeability, IgG extravasation) in stroked brain; type: in vivo, mouse; settings: PSD3; 1 mg/kg IP x3; mean±SD, n=8; Vehicle 70125±53485
Description: as §1
Sections were fixed in 10% phosphate-buffered formalin. After washing, IgG 568 biotinylated antibody (1:500, Thermo-Fisher Scientific) in 1% bovine serum albumin was applied to the tissue for 2 hours. Slides were then cover slipped (Vector Labs) for imaging on a Nikon Eclipse Ti and software (Nikon, Melville, N.Y., USA). Image J was used to isolate and count IgG positive pixels. Three separate 20× images per core region were taken per section and averaged.

α5β1 integrin [6] = biological target: T1, α5β1 integrin; assay: BCAS mouse model, y-maze % spontaneous alternation; type: in vivo; settings: post-stenosis day 14, 1 mg/kg i.p. after surgery and days 2, 4, 6, 8, 10, 12, n=4
Description: On post-stenosis day 14, mice underwent y-maze testing and % spontaneous alternation (working memory) was quantified. BCAS animals were treated with vehicle or ATN-161 (1 mg/kg; i.p.) treatment immediately after surgery and on post-stenosis days 2, 4, 6, 8, 10, 12. […] Sham: n=4; BCAS: n=8; ATN-161: n=4
as §3

GFAP = assay: BCAS mouse model, GFAP (astrocyte marker) staining in striatum; type: in vivo; settings: 14 days, striatum/white matter, 1 mg/kg i.p. after surgery and days 2, 4, 6, 8, 10, 12, n=4
Description: Representative images within the striatum of GFAP (astrocyte marker) staining in BCAS animals treated with ATN-161 (1 mg/kg; i.p.); treatment immediately after surgery and on post-stenosis days 2, 4, 6, 8, 10, 12. ATN-161: n=4
Quantification of GFAP-positive pixel density. **p≤0.01 compared to sham group.
as §3

CXCL12 = assay: qPCR of ipsilateral cortex at PSD3, CXCL12; type: in vivo, mouse; settings: relative to sham; mean±SD, n=8; Sham 1.015±0.1964, Vehicle 0.5271±0.1779
Description: as §4

integrin α5β1 [7] = biological target: T2, integrin α5β1 (Mus musculus, UniProt P09055+P11688); assay: 11-point behavioral Neuroscore after experimental ischemic stroke; type: in vivo; settings: vs Vehicle
T2 construct: Animals received an IP injection of either Vehicle (sterile PBS) or ATN-161; from tissue; host or cells: living mouse; brain / cerebrovasculature
Description: as §5
Animals received an IP injection of either Vehicle (sterile PBS) or ATN-161 (lmg/kg, Medkoo Biosciences, Morrisville, N.C., USA) immediately after reperfusion, PSD1 and on PSD2. Ischemic stroke was confirmed on 2 mm sections stained with […] (TTC; BD, Sparks, M D, USA) or Magnetic Resonance Imaging on PSD3. Accounting for edema volume, infarct size based on TTC images was analyzed with Image J (NH) software as: […]

MMP-9 [8] = assay: Immunohistochemical staining of MMP-9 in stroked brain; type: in vivo, mouse; settings: mean±SD, n=7
Description: as §1, §2

[9] = Phase I and II clinical oncology studies, 1 mg/kg 10-minute infusions: dry mouth, cellulitis, paresthesia in one out of four patients; cited from earlier work
integrin α5β1 [10] = biological target: T2, integrin α5β1; assay: Immunohistochemistry of integrin α5β1 (CD49e) in stroked brain; type: in vivo; settings: 1 mg/kg IP x3; mean±SD, n=7; Vehicle 308484±53485; p=0.0835
Description: as §1, §2

collagen IV = assay: qPCR of ipsilateral cortex at PSD3, collagen IV; type: in vivo, mouse; settings: relative to sham; mean±SD, n=8; Sham 1.018±0.1573, Vehicle 0.3543±0.1013
Description: as §4

integrin α5β1 [11] = biological target: T2, integrin α5β1; assay: MRI (ADC and T2-weighted) infarct and edema volume after experimental ischemic stroke; type: in vivo
Description: as §5
Animals received an IP injection of either Vehicle (sterile PBS) or ATN-161 (lmg/kg, Medkoo Biosciences, Morrisville, N.C., USA) immediately after reperfusion, PSD1 and on PSD2. […] Accounting for edema volume, infarct size based on TTC images was analyzed with Image J (NH) software as:
PSD3 animals were anesthetized with isoflurane and placed on a heated bed where body temperature and breathing rate were carefully monitored throughout the scan. […] All images were analyzed with ITK-SNAP (www.itksnap.org) by a blinded, independent neuroradiologist. […]

[12] = IP ATN-161 5 min after reperfusion, vs Vehicle

T1 sequence (P11688 45-898 limits assumed): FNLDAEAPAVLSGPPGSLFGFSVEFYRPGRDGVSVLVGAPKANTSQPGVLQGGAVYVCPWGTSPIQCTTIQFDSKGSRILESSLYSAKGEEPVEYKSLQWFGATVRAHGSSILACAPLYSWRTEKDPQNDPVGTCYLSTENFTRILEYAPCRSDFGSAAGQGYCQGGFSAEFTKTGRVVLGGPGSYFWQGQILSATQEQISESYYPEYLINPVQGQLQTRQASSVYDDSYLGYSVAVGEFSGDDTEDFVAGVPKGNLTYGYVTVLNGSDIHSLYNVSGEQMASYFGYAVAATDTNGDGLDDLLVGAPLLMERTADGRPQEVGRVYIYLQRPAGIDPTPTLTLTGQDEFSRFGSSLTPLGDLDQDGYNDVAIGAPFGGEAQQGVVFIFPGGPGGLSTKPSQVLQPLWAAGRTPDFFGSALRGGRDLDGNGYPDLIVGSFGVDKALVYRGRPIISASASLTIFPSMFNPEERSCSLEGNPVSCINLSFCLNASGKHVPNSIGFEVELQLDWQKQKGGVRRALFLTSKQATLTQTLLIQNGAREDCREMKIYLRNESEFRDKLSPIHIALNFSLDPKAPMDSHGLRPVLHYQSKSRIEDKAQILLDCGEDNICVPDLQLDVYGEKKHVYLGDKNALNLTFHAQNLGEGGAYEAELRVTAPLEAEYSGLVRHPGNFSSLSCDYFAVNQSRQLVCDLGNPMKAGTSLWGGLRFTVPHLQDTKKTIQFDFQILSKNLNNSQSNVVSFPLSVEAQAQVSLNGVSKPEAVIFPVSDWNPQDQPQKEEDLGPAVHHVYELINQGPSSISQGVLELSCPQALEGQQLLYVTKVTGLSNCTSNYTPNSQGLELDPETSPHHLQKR
T1 sequence (P11688 899-1053 limits assumed): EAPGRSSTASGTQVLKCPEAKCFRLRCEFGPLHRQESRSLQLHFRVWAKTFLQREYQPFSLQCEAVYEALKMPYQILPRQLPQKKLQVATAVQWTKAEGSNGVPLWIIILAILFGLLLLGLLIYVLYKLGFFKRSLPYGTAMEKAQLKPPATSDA
T1 sequence (P09055 21-798): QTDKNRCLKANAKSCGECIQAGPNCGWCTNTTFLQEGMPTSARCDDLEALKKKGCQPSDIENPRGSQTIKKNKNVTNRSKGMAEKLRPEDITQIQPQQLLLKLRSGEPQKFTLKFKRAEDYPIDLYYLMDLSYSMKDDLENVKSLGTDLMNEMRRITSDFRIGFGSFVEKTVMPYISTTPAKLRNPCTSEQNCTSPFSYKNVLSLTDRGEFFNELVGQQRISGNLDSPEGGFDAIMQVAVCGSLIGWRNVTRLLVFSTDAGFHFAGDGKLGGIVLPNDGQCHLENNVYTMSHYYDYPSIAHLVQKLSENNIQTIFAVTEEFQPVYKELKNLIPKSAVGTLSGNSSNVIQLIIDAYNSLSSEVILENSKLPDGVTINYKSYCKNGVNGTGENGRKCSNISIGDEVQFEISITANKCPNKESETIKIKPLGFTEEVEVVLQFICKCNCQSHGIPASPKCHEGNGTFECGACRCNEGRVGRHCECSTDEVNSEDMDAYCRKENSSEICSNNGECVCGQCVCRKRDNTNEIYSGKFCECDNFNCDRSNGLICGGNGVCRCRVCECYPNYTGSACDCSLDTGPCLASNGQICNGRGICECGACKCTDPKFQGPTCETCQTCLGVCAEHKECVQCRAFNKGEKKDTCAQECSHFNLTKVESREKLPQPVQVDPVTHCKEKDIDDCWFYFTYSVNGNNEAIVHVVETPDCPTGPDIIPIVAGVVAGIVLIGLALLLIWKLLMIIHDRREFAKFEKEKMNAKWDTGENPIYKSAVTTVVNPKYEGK
T2 sequence (P11688 45-898 limits assumed): as the sequence (P11688 45-898 limits assumed) above
T2 sequence (P11688 899-1053 limits assumed): as the sequence (P11688 899-1053 limits assumed) above
T2 sequence (P09055 21-798): as the sequence (P09055 21-798) above

In the case of PHSRN, the “effect after rat transient MCAO” value (α5β1 integrin [1]) is listed as “neuroprotective, proangiogenic and increased neurogenesis”.
For Ac-PHSCN-NH2 [ATN-161], the “Claudin-5 positive pixels in the core at PSD3” value (Claudin-5) is given as 44220±19878 positive pixels, the “α5 expression (α5-positive pixel density) in cortex following BCAS” value (α5β1 integrin [2]) is given as “decreases α5β1 integrin expression compared to controls; also recorded: decreases α5 expression compared to controls” and the “doses producing the most significant reduction in activity (angiogenesis and tumor growth)” value [3] is given as 1 to 5 mg/kg. For the same substance, the “qPCR IL-1β, ipsilateral cortex at PSD3” value (IL-1β) was 11.89±9.235 fold change, the “qPCR MMP-9, ipsilateral cortex at PSD3” value (MMP-9 [4]) was 2.757±2.401 fold change and the “percent change of body temperature following reperfusion” value [5, 12] was “did not show any differences”. For the same substance, the “percent change of heart rate (bpm) following reperfusion” value [5, 12] was “did not show any differences”, the “percent change of pulse distension following reperfusion” value [5, 12] was “did not show any differences” and the “percent change of body weight following ischemic stroke” value ([5]; IP ATN-161, vs Vehicle) was “did not show any differences”. For the same substance, the “IgG positive pixel analysis in the core” value (IgG) was 16753±23348 positive pixels, the “cognitive outcome, y-maze % spontaneous alternation (working memory)” value (α5β1 integrin [6]) was “improves cognitive outcome; also recorded: A positive trend is observed” and the “inflammation (GFAP-positive pixel density, astrocyte activation) following BCAS” value (GFAP) was “decreases inflammation compared to controls”. The “qPCR CXCL12, ipsilateral cortex at PSD3” value (CXCL12) was 0.8488±0.2846 fold change, the “11-point Neuroscore on PSD1” value (integrin α5β1 [7]) was “no difference” and the “MMP-9 positive pixels at PSD3 in the peri-infarct” value (MMP-9 [8]; Vehicle 189516±170441, p=0.0450) was 42227±180171 positive pixels. For the same substance, the “MMP-9 positive pixels at PSD3 in the core” value (MMP-9 [8]; Vehicle 443691±220951, p=0.0734) was 232262±68098 positive pixels, the “safety and tolerability in clinical trials” value [9] was “safe and well-tolerated; also recorded: limited side effects” and the “Integrin α5β1 analysis at PSD3 in peri-infarct” value (integrin α5β1 [10]) was 162166±23348 positive pixels. The “qPCR collagen IV, ipsilateral cortex at PSD3” value (collagen IV) was 0.8563±0.6898 fold change, the “Infarct volume analysis of T2 weighted MRI scan following MCAo” value (integrin α5β1 [11]; 1 mg/kg, PSD 3, n=8 vs Vehicle n=7, p≤0.05) was “reduces infarct volume; also recorded: decreased infarct volumes” and the “ADC analysis for infarct volume” value (integrin α5β1 [11]; PSD3, 1 mg/kg IP after reperfusion, PSD1, PSD2, absent edema volume, mean±SD, n=8, Vehicle 17.9±4.677) was 12.24±3.758.
